Test results published in patent US8546375B2, “(3-(4-(aminomethyl)phenoxy or phenylthio)azetidin-1-yl)(5-phenyl-1,3,4-oxadiazol-2-yl)methanone compounds” (AstraZeneca AB, priority 2010, dated 2013).

Assays:
[1] = target: T1, Melanin Concentrating Hormone Receptor 1 (MCHR1) (Homo sapiens, UniProt Q99705); assay: MCHR1 Receptor Activation Assay (GTPγ^35S); assay type: biochemical; details: read-out: GTPγ^35S IC50
T1 construct: expressed in transfected cells
T1 sequence (Q99705 whole entry): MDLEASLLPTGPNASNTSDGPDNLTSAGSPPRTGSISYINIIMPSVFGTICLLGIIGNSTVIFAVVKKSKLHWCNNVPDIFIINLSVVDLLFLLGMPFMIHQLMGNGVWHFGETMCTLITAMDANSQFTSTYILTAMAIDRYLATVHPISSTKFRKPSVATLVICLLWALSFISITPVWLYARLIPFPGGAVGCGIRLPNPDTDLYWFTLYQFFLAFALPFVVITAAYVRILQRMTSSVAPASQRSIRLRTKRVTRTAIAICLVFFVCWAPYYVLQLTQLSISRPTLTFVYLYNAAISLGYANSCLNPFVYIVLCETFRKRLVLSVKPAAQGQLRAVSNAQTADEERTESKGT

SMILES | IC50 [1] | melting point
Cc1cc(OC2CN(C(=O)c3nnc(-c4ccccc4)o3)C2)ccc1CN(C)C [Example 21, (3-(4-((Dimethylamino)methyl)-3-methylphenoxy)azetidin-1-yl)(5-phenyl-1,3,4-oxadiazol-2-yl)methanone] | 22 nM | 135 °C
COc1ccc(-c2nnc(C(=O)N3CC(Oc4ccc(CN(C)C)cc4C)C3)o2)cc1 [Example 17, (3-(4-((Dimethylamino)methyl)-2-methylphenoxy)azetidin-1-yl)(5-(4-methoxyphenyl)-1,3,4-oxadiazol-2-yl)methanone] | 25 nM | 
